US20260115187A1, “TRICYCLIC SKELETON COMPOUND AND USE THEREOF IN PREPARATION OF ANTITUMOR DRUG” (ZHONGSHAN HOSPITAL, FUDAN UNIVERSITY, priority 2024, published 2026)

What was measured:
[1] = system: PLC/PRF/5 KSR2 OE (PLC cells overexpressing KSR2); assay: Cell IC50 assay (CCK8 cell viability), PLC/PRF/5 KSR2 OE; assay type: cell-based; details: Homo sapiens, PLC-PRF-5; hepatoma cells, 72 h incubation, CCK8; read-out: IC50 value of cell viability, PLC/PRF/5 KSR2 OE (PLC cells overexpressing KSR2)
Description: (§1) (1) Cell Preparation: Hepatoma cells (PLC/PRF/5, sourced from the Chinese Academy of Sciences; MHCC97H, sourced from this research institute) in good growth condition are prepared. The cells are trypsinized, diluted, and seeded into 96-well cell culture plates. 1,000-3,000 cells are added per well. The plates are then placed in a cell culture incubator at 37° C. with 5% CO2. Drugs are added after the cells have adhered for 24 h.
(§2) (2) Drug Addition: The drugs are subjected to gradient dilution, typically setting 9 concentrations. Control groups containing no drug medium and medium containing only the drug solvent are also set up. The diluted drugs are added to the cell culture plates seeded the previous day. The plates are incubated for 72 h.
(§3) (3) CCK8 Assay for Cell Viability: CCK8 is mixed with culture medium at a 1:10 ratio. 100 μL of this mixture is added to each well of the cell culture plate. After incubating for 2-4 h, the OD values are measured using a microplate reader.
(§4) (4) Data Analysis: Based on the corresponding OD values, the data are compiled, IC50 curves are plotted, and the IC50 values are obtained.
(§5) (5) IC50 Verification: The theoretical IC50 value is identified from the IC50 curve. Drug concentrations at ½ times, 1 time, and 2 times this theoretical value are used for verification.

[2] = system: MHCC97H KSR2 OE (97H cells overexpressing KSR2); assay: Cell IC50 assay (CCK8 cell viability), MHCC97H KSR2 OE; assay type: cell-based; details: Homo sapiens, hepatoma cells, 72 h incubation, CCK8, read-out: IC50 value of cell viability, MHCC97H KSR2 OE (97H cells overexpressing KSR2)
Description: as §1, §2, §3, §4, §5

Row | Compound | IC50 [1] | IC50 [2]
1 | Cn1nc(C(=O)NCCCN2CCC(N3CCN(CC4CC4)CC3)CC2)c2c1-c1ccccc1SC2 [Compound 64] | 5 µM | 6 µM
2 | CN(Cc1ccccc1)C1CCN(CCCNC(=O)c2nn(C)c3c2CSc2ccccc2-3)CC1 [Compound 65] | 8 µM | 14 µM
3 | COCCN1CCN(C2CCN(CCCNC(=O)c3nn(C)c4c3CSc3ccccc3-4)CC2)CC1 [Compound 66] | 19 µM | 21 µM
4 | Cn1nc(C(=O)NCCCN2CCC(N3CCN(CCO)CC3)CC2)c2c1-c1ccccc1SC2 [Compound 67] | 20 µM | 24 µM
5 | CN1CCN(C2CCN(CCCNC(=O)c3nn(C)c4c3COc3cc(Cl)ccc3-4)CC2)CC1 [Compound 68] | 0.7 µM | 2 µM
6 | CN1CCN(C2CCN(CCCNC(=O)c3nn(C)c4c3COc3ccc(Cl)cc3-4)CC2)CC1 [Compound 69] | 0.6 µM | 5 µM
7 | Cn1nc(C(=O)NCCCN2CCC(N3CCN(CC4COC4)CC3)CC2)c2c1-c1ccccc1SC2 [Compound 70] | 39 µM | 9 µM
8 | CN1CCN(C2CCN(CCCNC(=O)c3nn(C)c4c3COc3cc(F)ccc3-4)CC2)CC1 [Compound 71] | 8 µM | 5 µM
9 | CN1CCN(C2CCN(CCCNC(=O)c3nn(C)c4c3COc3c(Cl)cccc3-4)CC2)CC1 [Compound 72] | 2 µM | 2 µM
10 | CN1CCN(C2CCN(CCCNC(=O)c3nn(C)c4c3COc3c(F)cccc3-4)CC2)CC1 [Compound 73] | 12 µM | 3 µM
11 | CN1CC2CCC(C1)N2C1CCN(CCCNC(=O)c2nn(C)c3c2CSc2ccccc2-3)CC1 [Compound 74] | 10 µM | 8 µM
12 | CN1CCN(C2CCN(CCCNC(=O)c3nn(C)c4c3CS(=O)(=O)c3ccccc3-4)CC2)CC1 [Compound 75] | 18 µM | 105 µM
13 | CN1CCN(C2CCN(CCCNC(=O)c3nn(C)c4c3COc3ccc(F)cc3-4)CC2)CC1 [Compound 76] | 18 µM | 22 µM
14 | CN1CCN(C2CN(C3CC(CNC(=O)c4nn(C)c5c4CSc4ccccc4-5)C3)C2)CC1 (stereo not drawn) [Compound 77] | 21 µM | 27 µM
15 | CN1CCN(C2CCN(C3CC(CNC(=O)c4nn(C)c5c4CSc4ccccc4-5)C3)CC2)CC1 (stereo not drawn) [Compound 78] | 12 µM | 6 µM
16 | Cn1nc(C(=O)NCCCN2CCC(N3CCN(CCC#N)CC3)CC2)c2c1-c1ccccc1SC2 [Compound 79] | 57 µM | 40 µM
17 | CCN1CCN(C2CN(C3CC(CNC(=O)c4nn(C)c5c4CSc4ccccc4-5)C3)C2)CC1 (stereo not drawn) [Compound 80] | 28 µM | 8 µM
18 | CCN1CCN(C2CN(CCCNC(=O)c3nn(C)c4c3CSc3ccccc3-4)C2)CC1 [Compound 81] | 26 µM | 11 µM
19 | CN1CCN(C2CCN(CCCNC(=O)c3nn(C)c4c3COc3ccc(C#N)cc3-4)CC2)CC1 [Compound 82] | 8 µM | 8 µM

Row | Compound | IC50 [1] | IC50 [2]
20 | CN1CCN(C2CCN(CCCNC(=O)c3n[nH]c4c3CSc3ccccc3-4)CC2)CC1 [Compound 83] | 18 µM | 10 µM
21 | CCN1CCN(C2CCN(CCCNC(=O)c3nn(C)c4c3COc3cc(Cl)ccc3-4)CC2)CC1 [Compound 84] | 2 µM | 1 µM
22 | CN1CCN(C2CN(CCCNC(=O)c3nn(C)c4c3CSc3ccccc3-4)C2)CC1 [Compound 85] | 25 µM | 19 µM
23 | CN1CCN(C2CN(CCCNC(=O)c3nn(C)c4c3COc3cc(Cl)ccc3-4)C2)CC1 [Compound 86] | 6 µM | 6 µM
24 | CCN1CCN(C2CN(CCCNC(=O)c3nn(C)c4c3COc3cc(Cl)ccc3-4)C2)CC1 [Compound 87] | 6 µM | 3 µM
25 | CN1CCN(C2CCN(CCCNC(=O)c3nn(C4COC4)c4c3CSc3ccccc3-4)CC2)CC1 [Compound 88] | 22 µM | 41 µM
26 | CN1CCN(C2CCN(CCCNC(=O)c3c4c(nn3C3COC3)-c3ccccc3SC4)CC2)CC1 [Compound 89] | 15 µM | 32 µM
27 | CN1CCN(C2CCN(CCCNC(=O)c3nn(CC(C)(C)O)c4c3CSc3ccccc3-4)CC2)CC1 [Compound 90] | 21 µM | 34 µM
28 | CN1CCN(C2CCN(CCCNC(=O)c3nn(C)c4c3COc3cc(C(F)(F)F)ccc3-4)CC2)CC1 [Compound 91] | 2 µM | 4 µM
29 | CN1CCN(C2CCN(CCCNC(=O)c3nn(C)c4c3COc3cc(Br)ccc3-4)CC2)CC1 [Compound 92] | 4 µM | 4 µM
30 | CN1CCN(C2CCN(CCCNC(=O)c3nn(C)c4c3COc3cc(C5CC5)ccc3-4)CC2)CC1 [Compound 93] | 3 µM | 4 µM
31 | CN1CCN(C2CCN(CCCNC(=O)c3nn(C)c4c3COc3cc(C#N)ccc3-4)CC2)CC1 [Compound 94] | 7 µM | 10 µM
32 | CN1CCN(C2CCN(CCCNC(=O)c3nn(C)c4c3COc3cc(-c5cnn(C)c5)ccc3-4)CC2)CC1 [Compound 95] | 2 µM | 2 µM
33 | CN1CCN(C2CCN(CCCNC(=O)c3nn(C)c4c3CSc3cc(Cl)ccc3-4)CC2)CC1 [Compound 96] | 4 µM | 1 µM
34 | CN1CCN(C2CN(CCCNC(=O)c3nn(C)c4c3CSc3cc(Cl)ccc3-4)C2)CC1 [Compound 97] | 7 µM | 5 µM
35 | Cn1nc(C(=O)NCCCN2CC(N3CCOCC3)C2)c2c1-c1ccc(Cl)cc1OC2 [Compound 98] | 18 µM | 29 µM
36 | CN1CCN(C2CN(C3CC(CNC(=O)c4nn(C)c5c4COc4cc(Cl)ccc4-5)C3)C2)CC1 (stereo not drawn) [Compound 99] | 9 µM | 17 µM
37 | CN1CCCC12CN(CCCNC(=O)c1nn(C)c3c1CSc1ccccc1-3)C2 [Compound 100] | 61 µM | 71 µM
38 | CN1CCN(C2CCN(CCCNC(=O)c3nn(C)c4c3COc3cc(Cl)c(Br)cc3-4)CC2)CC1 [Compound 101] | 1 µM | 1 µM

Row | Compound | IC50 [1] | IC50 [2]
39 | CN1CCN(C2CCN(CCCNC(=O)c3c4c(nn3C)-c3cc(Br)c(Cl)cc3OC4)CC2)CC1 [Compound 102] | 1 µM | 1 µM
40 | CC(C)N1CCN(C2CN(CCCNC(=O)c3nn(C)c4c3COc3cc(Cl)ccc3-4)C2)CC1 [Compound 103] | 5 µM | 5 µM
41 | Cn1nc(C(=O)NCCCN2CC(N3CC[C@H](O)C3)C2)c2c1-c1ccc(Cl)cc1OC2 [Compound 104] | 30 µM | 41 µM
42 | CN1CCN(C2CCN(CCCNC(=O)c3nn(C)c4c3COc3cc(OC(F)(F)F)ccc3-4)CC2)CC1 [Compound 105] | 4 µM | 3 µM
43 | CN1CCN(C2CN(CCCNC(=O)c3nn(C)c4c3COc3cc(OC(F)(F)F)ccc3-4)C2)CC1 [Compound 107] | 2 µM | 5 µM
44 | CN1CCN(C2CN(CCCNC(=O)c3c4c(nn3C)-c3ccc(OC(F)(F)F)cc3OC4)C2)CC1 [Compound 108] | 5 µM | 8 µM
45 | CCN1CCN(C2CN(CCCNC(=O)c3nn(C)c4c3CSc3cc(Cl)ccc3-4)C2)CC1 [Compound 109] | 7 µM | 10 µM
46 | CN1CCN(C2CN(C3CC(CNC(=O)c4nn(C)c5c4CSc4cc(Cl)ccc4-5)C3)C2)CC1 (stereo not drawn) [Compound 110] | 4 µM | 9 µM
47 | CCN1CCN(C2CN(C3CC(CNC(=O)c4nn(C)c5c4CSc4cc(Cl)ccc4-5)C3)C2)CC1 (stereo not drawn) [Compound 111] | 6 µM | 9 µM
48 | CCN1CCN(C2CN(C3CC(CNC(=O)c4nn(C)c5c4COc4cc(OC(F)(F)F)ccc4-5)C3)C2)CC1 (stereo not drawn) [Compound 112] | 3 µM | 4 µM
49 | CN1CCN(C2CCN(CCCNC(=O)c3nn(C)c4c3COc3cc(Cl)c(C#N)cc3-4)CC2)CC1 [Compound 113] | 1 µM | 0.8 µM
50 | CCN1CCN(C2CN(C3CC(CNC(=O)c4nn(C)c5c4COc4cc(Cl)ccc4-5)C3)C2)CC1 (stereo not drawn) [Compound 114] | 4 µM | 2 µM
51 | Cc1ccc2c(c1)OCc1c-2nn(C)c1C(=O)NCCCN1CC(N2CCN(C)CC2)C1 [Compound 115] | 43 µM | 18 µM
52 | Cc1ccc2c(c1)OCc1c-2nn(C)c1C(=O)NCCCN1CCC(N2CCN(C)CC2)CC1 [Compound 116] | 18 µM | 7 µM
53 | CN1CCN(C2CCN(CCCNC(=O)c3c4c(nn3C)-c3ccc(Cl)cc3OC4)CC2)CC1 [Compound 117] | 6 µM | 0.7 µM
54 | CN1CCN(C2CN(CCCNC(=O)c3c4c(nn3C)-c3ccc(Cl)cc3OC4)C2)CC1 [Compound 118] | 10 µM | 5 µM
55 | CN1CCN(C2CN(CCCNC(=O)c3nn(C)c4c3COc3cc(Cl)c(C#N)cc3-4)C2)CC1 [Compound 119] | 5 µM | 7 µM
56 | Cc1ccc2c(c1)OCc1c(C(=O)NCCCN3CCC(N4CCN(C)CC4)CC3)nn(C)c1-2 [Compound 120] | 8 µM | 10 µM
57 | Cc1ccc2c(c1)OCc1c(C(=O)NCCCN3CC(N4CCN(C)CC4)C3)nn(C)c1-2 [Compound 121] | 18 µM | 20 µM
